Assay: Preliminary screening of ibuprofen solubility in HPMC
Assay type: physicochemical
Details: 0.5 part ibuprofen in 1 part HPMC w/w
Source text: As listed in Table 4, […] process, which is a common procedure to generate glass-solution solid dispersion (Newman, ‘Pharmaceutical Amorphous Solid Dispersions’, Wiley (2015)). […] Therefore, these dispersions exceed the solubility limit of ibuprofen in HPMC.

CC(C)Cc1ccc(C(C)C(=O)O)cc1 (racemic) [ibuprofen]
solubility of ibuprofen in HPMC: about 50 wt % of HPMC

— US10792249B2, “High drug loading pharmaceutical compositions” (AcrysPharm LLC, priority 2017, dated 2020)
